Laboratory results published in publication PMC12508159 (NPJ Biofilms and Microbiomes, 2025).
pKd: −log10 of the molar value.

Experiments:
[1] = target: T1, serine-rich adhesin for platelets (SraP), L-lectin module (SLL) (Staphylococcus aureus, UniProt Q8NUJ3); assay: SPR; format: binding
[2] = target: T1, serine-rich adhesin for platelets (SraP), L-lectin module (SLL); assay: SPR; format: binding; remark: listed apart in the source

T1 sequence (Q8NUJ3 245-480): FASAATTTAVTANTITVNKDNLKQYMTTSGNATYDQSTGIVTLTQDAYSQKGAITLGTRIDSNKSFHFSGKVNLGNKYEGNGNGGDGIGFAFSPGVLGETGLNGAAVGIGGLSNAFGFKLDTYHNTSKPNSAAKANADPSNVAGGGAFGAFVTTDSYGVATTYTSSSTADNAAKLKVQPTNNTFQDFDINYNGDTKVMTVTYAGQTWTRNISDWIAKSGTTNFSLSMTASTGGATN

| Compound | pKd [1] | SPR (Biacore T200), dose-dependent [2] |
| --- | --- | --- |
| O=C1O[C@H]2[C@@H]3OC(=O)c4cc(O)c(O)c(O)c4-c4c(O)c(O)c5oc(=O)c6c(c(O)c(O)c7oc(=O)c4c5c76)-c4c(cc(O)c(O)c4O)C(=O)OC[C@H]3OC(O)[C@@H]2OC(=O)c2cc(O)c(O)c(O)c2-c2c1cc(O)c(O)c2O (mixture of isomers) [PA, punicalagin] | 6.25 | – |
| COc1cc(-c2oc3cc(O)cc(O)c3c(=O)c2O[C@@H]2O[C@H](CO[C@@H]3O[C@@H](C)[C@H](O)[C@@H](O)[C@H]3O)[C@@H](O)[C@H](O)[C@H]2O)ccc1O [isorhamnetin-3-O-β-rutinoside] | – | isorhamnetin-3-O-β-rutinoside, EGCG, neoeriocitrin, and isoviolanthin, were verified to possess strong binding signals in a dose-dependent manner |
| C[C@@H]1O[C@@H](O[C@H]2[C@H](Oc3cc(O)c4c(c3)O[C@H](c3ccc(O)c(O)c3)CC4=O)O[C@H](CO)[C@@H](O)[C@@H]2O)[C@H](O)[C@H](O)[C@H]1O [neoeriocitrin] | – | EGCG, neoeriocitrin, and isoviolanthin, were verified to possess strong binding signals in a dose-dependent manner |
